Source: US9056867B2, “N-substituted heterocyclyl carboxamides” (NOVARTIS AG, priority 2011, dated 2015)

These molecules were tested against T1, ΔF508-CFTR channel (Homo sapiens, UniProt P13569, DEL508-508) (assay: CFTR potentiator assays (membrane potential assay, IonWorks Quattro assay, ion transport assay); the patent does not say which one gave the values). Details: cells stably expressing ΔF508-CFTR, forskolin present; values given in μM; read-out: Ki values in the data measurements described above.
T1 construct: expressed in transfected cells
Type: cell-based
Text: CFTR activity can be quantified by measuring the transmembrane potential. The means for measuring the transmembrane potential in a biological system can employ a number of methods including electrophysiological and optical fluoresence-based membrane potential assays.
The optical membrane potential assay utilises a negatively charged potentiometric dye, such as the FLIPR membrane potential dye (FMP) (see Baxter D F, Kirk M, Garcia A F, Raimondi A, Holmqvist M H, Flint K K, Bojanic D, Distefano P S, Curtis R, Xie Y. ‘A novel membrane potential-sensitive fluorescent dye improves cell-based assays for ion channels.’ J Biomol Screen. 2002 Feb.; 7(1):79-85) which when extraceullar is bound to a quenching agent. Upon cellular depolarisation the negatively charged dye redistributes to the intracellular compartment, unbinding from the membrane impermeant quench agent, yielding an increase in fluorescence. This change in fluoresence is proportional to the change in transmembrane potential which can result from the activity of CFTR. The changes in fluorescence can be monitored in real time by an appropriately equipped fluorescence detector such as the FLIPR (fluorometric imaging plate reader) in 96 or 384-well microtitre plates.
Chinese hamster ovary (CHO) cells stably expressing the ΔF508-CFTR channel were used for membrane potential experiments. Cells were maintained at 37° C. in 5% v/v CO2 at 100% humidity in Modified Eagles medium (MEM) supplemenetd with 8% v/v foetal calf serum, 100 μg/ml methotrexate and 100 U/ml penicillin/streptomycin. Cells were grown in 225 cm^2 tissue culture flasks. For membrane potential assays cells were seeded into 96 well plates at 40,000 cells per well, allowed to adhere and then maintained at 26° C. for 48 h to facilitate channel insertion.
The membrane potential screening assay utilised a low chloride ion containing extraceullular solution (˜5 mM) combined with a double addition protocol. The first addition was of buffer with or without test compound followed 5 minutes later by an addition of forskolin (1-20 μM)—this protocol favours maximum chloride efflux in response to ΔF508-CFTR activation. The ΔF508-CFTR mediated chloride ion efflux leads to a membrane depolarisation which is optically monitoried by the FMP dye.
Low chloride extracellular (mM): 120 Na-gluconate, 1.2 CaCl2, 3.3 KH2PO4, 0.8 K2HPO4, 1.2 MgCl2, 10.0 D-glucose, 20.0 HEPES, pH 7.4 with NaOH
FMP dye: made up as per manufacuturers instructions in low chloride extracellular solution detailed above, at 10× final concentration, and stored as 1 mL aliquots at −20° C.
CFTR activity can also be quantified electrophysiologically using the whole-cell configuration of the patch clamp technique (Hamill et al Pflugers Acrhive 1981). This assay directly measures the currents associated with chloride flow through CFTR channels whilst either maintaining or adjusting the transmembrane voltage. This assay can use either single glass micropipettes or parallel planar arrays to measure CFTR activity from native or recombinant cell systems. Currents measured using parallel planar arrays can be quantified using an appropriately equipped instrument such as the IonWorks Quattro (Molecular Devices) or the Qpatch (Sophion). The Quattro system can measure CFTR currents from either a single cell per recording well (HT configuration) or alternatively from a population of 64 cells per well (Population Patch Clamp PPC) (Finkel A, Wittel A, Yang N, Handran S, Hughes J, Costantin J. ‘Population patch clamp improves data consistency and success rates in the measurement of ionic currents.’ J Biomol Screen. 2006 Aug.; 11(5):488-96).
Chinese hamster ovary (CHO) cells stably expressing the ΔF508-CFTR channel were used for IonWorks Quattro experiments. […]

T1 sequence (P13569 with tags, fused parts or gaps DEL508-508): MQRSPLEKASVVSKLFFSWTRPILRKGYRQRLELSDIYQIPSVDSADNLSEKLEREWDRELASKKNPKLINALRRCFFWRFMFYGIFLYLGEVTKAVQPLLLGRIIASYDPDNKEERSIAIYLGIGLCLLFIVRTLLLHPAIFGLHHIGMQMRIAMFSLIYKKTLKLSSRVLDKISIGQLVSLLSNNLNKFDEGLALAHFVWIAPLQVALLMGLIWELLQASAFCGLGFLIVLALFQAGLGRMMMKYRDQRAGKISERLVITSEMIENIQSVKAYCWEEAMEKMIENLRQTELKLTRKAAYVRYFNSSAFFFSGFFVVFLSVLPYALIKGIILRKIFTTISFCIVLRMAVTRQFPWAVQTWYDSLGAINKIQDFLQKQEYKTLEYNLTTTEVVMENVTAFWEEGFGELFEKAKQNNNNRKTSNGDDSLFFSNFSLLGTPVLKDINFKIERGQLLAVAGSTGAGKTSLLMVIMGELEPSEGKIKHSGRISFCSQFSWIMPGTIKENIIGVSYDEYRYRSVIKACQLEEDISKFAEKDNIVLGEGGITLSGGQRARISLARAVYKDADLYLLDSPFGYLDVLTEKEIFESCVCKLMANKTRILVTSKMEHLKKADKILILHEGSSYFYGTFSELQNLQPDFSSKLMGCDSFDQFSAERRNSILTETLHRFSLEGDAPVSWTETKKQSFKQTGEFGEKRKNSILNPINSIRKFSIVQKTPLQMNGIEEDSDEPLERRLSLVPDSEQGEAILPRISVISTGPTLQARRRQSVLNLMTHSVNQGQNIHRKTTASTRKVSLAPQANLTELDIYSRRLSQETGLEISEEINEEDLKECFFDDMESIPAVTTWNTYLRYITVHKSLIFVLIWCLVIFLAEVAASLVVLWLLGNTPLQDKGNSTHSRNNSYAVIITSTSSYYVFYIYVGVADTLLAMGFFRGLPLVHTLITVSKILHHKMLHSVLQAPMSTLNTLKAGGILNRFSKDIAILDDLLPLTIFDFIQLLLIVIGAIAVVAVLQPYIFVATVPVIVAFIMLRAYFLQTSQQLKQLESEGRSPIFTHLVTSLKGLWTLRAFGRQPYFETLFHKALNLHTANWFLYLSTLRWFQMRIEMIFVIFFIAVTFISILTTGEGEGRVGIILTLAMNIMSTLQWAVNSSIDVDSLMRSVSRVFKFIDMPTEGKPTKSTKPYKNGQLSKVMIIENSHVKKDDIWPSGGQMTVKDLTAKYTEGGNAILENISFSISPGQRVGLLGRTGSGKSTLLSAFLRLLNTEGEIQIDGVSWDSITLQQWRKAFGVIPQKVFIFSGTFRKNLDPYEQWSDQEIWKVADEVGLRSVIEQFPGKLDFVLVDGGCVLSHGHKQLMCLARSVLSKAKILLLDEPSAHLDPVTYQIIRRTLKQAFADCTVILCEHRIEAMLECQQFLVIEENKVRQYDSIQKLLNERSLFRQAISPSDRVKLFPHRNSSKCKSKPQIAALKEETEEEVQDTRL

Ki [µM]	SMILES
0.07	Nc1cc(C(F)(F)F)c(Br)nc1C(=O)Nc1cc(C(F)(F)F)n[nH]1 [Example 5, 3-Amino-6-bromo-5-trifluoromethyl-pyridine-2-carboxylic acid (5-trifluoromethyl-2H-pyrazol-3-yl)-amide]
0.01	Nc1cc(C(F)(F)F)c(Br)nc1C(=O)Nc1ccn[nH]1 [Example 7, 3-Amino-6-bromo-5-trifluoromethyl-pyridine-2-carboxylic acid (2H-pyrazol-3-yl)-amide]
0.025	Nc1cc(C(F)(F)F)c(Cl)nc1C(=O)Nc1ccn[nH]1 [Example 22, 3-Amino-6-chloro-N-(1H-pyrazol-5-yl)-5-(trifluoromethyl)picolinamide]
1.55	Nc1nc(C(F)(F)F)c(Br)nc1C(=O)Nc1[nH]ncc1-c1ccccn1 [Example 19, 3-Amino-6-bromo-N-(4-(pyridin-2-yl)-1H-pyrazol-5-yl)-5-(trifluoromethyl)pyrazine-2-carboxamide]
0.004	Nc1cc(C(F)(F)F)c(Br)nc1C(=O)Nc1n[nH]c2nccnc12 [Example 18, 3-Amino-6-bromo-N-(1H-pyrazolo[4,3-b]pyrazin-3-yl)-5-(trifluoromethyl)picolinamide]
0.02	Nc1nc(C(F)(F)F)c(Br)nc1C(=O)Nc1nc(Cc2ccccc2)n[nH]1 [Example 24, 3-Amino-N-(3-benzyl-1H-1,2,4-triazol-5-yl)-6-bromo-5-(trifluoromethyl)pyrazin-2-carboxamide]
0.16	Cc1nnc(-c2ccc(-c3nc(C(=O)Nc4ccn[nH]4)c(N)cc3C(F)(F)F)cc2)o1 [Example 26.3, 3-Amino-6-[4-(5-methyl-[1,3,4]oxadiazol-2-yl)-phenyl]-5-trifluoromethyl-pyridine-2-carboxylic acid (2H-pyrazol-3-yl)-amide]
0.255	Nc1nc(C(F)(F)F)c(Cl)nc1C(=O)Nc1ccn[nH]1 [Example 14, 3-Amino-6-chloro-5-trifluoromethyl-pyrazine-2-carboxylic acid (2H-pyrazole-3-yl)amide]

Same assay, conditions: cells stably expressing ΔF508-CFTR, forskolin present; values in nM; read-out: Ki values in the data measurements described above

Ki [µM]	SMILES
0.045	COc1ccc(-c2nc(C(=O)Nc3ccn[nH]3)c(N)cc2C(F)(F)F)cn1 [Example 26.2, 5-Amino-6′-methoxy-3-trifluoromethyl-[2,3′]bipyridinyl-6-carboxylic acid (2H-pyrazol-3-yl)-amide]
0.019	Cc1cn[nH]c1NC(=O)c1nc(C(F)(F)F)c(C(F)(F)F)nc1N [Example 27, 3-Amino-5,6-bis-trifluoromethyl-pyrazine-2-carboxylic acid (4-methyl-2H-pyrazol-3-yl)-amide]
0.03	Nc1cc(C(F)(F)F)c(-c2cccc(CN3CCCC3=O)c2)nc1C(=O)Nc1ccn[nH]1 [Example 26.1, 3-Amino-6-[3-(2-oxo-pyrrolidin-1-ylmethyl)-phenyl]-5-trifluoromethyl-pyridine-2-carboxylic acid (2H-pyrazol-3-yl)-amide]
0.0038	Nc1cc(C(F)(F)F)c(-c2ccc(F)cc2)nc1C(=O)Nc1cc[nH]n1 [Example 25.1, 3-Amino-6-(4-fluorophenyl)-N-(1H-pyrazol-3-yl)-5-(trifluoromethyl)picolinamide]
0.014	COc1ncccc1-c1nc(C(=O)Nc2cc[nH]n2)c(N)cc1C(F)(F)F [Example 25.3, 5-Amino-2′-methoxy-3-trifluoro methyl-[2,3′]bipyridinyl-6-carboxylic acid (1H-pyrazol-3-yl)-amide]
0.013	Cc1cc(Cl)ccc1-c1nc(C(=O)Nc2ccn[nH]2)c(N)cc1C(F)(F)F [Example 25.2, 3-Amino-6-(4-chloro-2-methyl-phenyl)-5-trifluoro methyl-pyridine-2-carboxylic acid (2H-pyrazol-3-yl)-amide]
